Here are results for one compound from US20210177879A1, “VITAMIN D RECEPTOR AGONIST” (Guanghzou University of Chinese Medicine, priority 2018, published 2021).

Experiment [1] concerns AOM/DSS colon cancer model. Description: AOM/DSS colon cancer model, Experiment 1 (body weight, anal prolapse, organ coefficient, colon and tumor indexes). It is filed as in vivo, Balb/c mice. As for the experimental part:
(§1) Experimental method: 90 Balb/c mice of 6-8 weeks were purchased from the Experimental Animal Center in Guangzhou University of Chinese Medicine, weighed about 18-22 g, and subjected to adaptive feeding for 10 days. Modeling was divided into three stages. In the first stage, except for the normal group of animals being given saline injection, each of the other animals were intraperitoneally injected with a carcinogen AOM (10 mg/kg), and given free access to 2% DSS water from the next day for 7 days, and then given access to replaced regular drinking water for 14 days. In the second stage, the animals were given free access to 2% DSS water for 10 days, and then given access to replaced regular drinking water for 14 days. In the third stage, the animals were given free access to 2% DSS water for 10 days, and then given access to replaced regular drinking water for 11 days. The normal group was given access to regular drinking water throughout the experiment. The diet, water drinking and body weights of the animals were recorded daily and DAI scores were made, and the animals were killed and harvested at the 10th week. In this experiment, the animals were divided into groups and administrated on the first day of a modeling period of the second stage, and the total number of groups was set to 5 groups. The first group was a blank control group (Normal), in which a total of 12 animals were given access to drinking water by gavage; the second group was a model group (AOM/DSS), in which a total of 22 animals were given access to drinking water by gavage; the third group was a positive drug control group (5-ASA+AOM/DSS), in which a total of 22 animals were given access to 100 mg/kg of mesalazine (5-ASA) by gavage; and the fourth and fifth groups were monotropein-intervening groups (Mo+AOM/DSS), which were a high dose of 8 mg/kg and a low dose of 2 mg/kg, respectively, with 17 animals in each group. Dosing was conducted daily until dissection.
(1) The calculation formula of a DAI score: DAI value=(score of weight loss+score of stool trait+score of blood in stool)/3.
The animals were anesthetized and harvested, and the liver, spleen, thymus and testis were weighed to calculate the organ coefficient; the colon tissue was taken, measured with a ruler for the length, and measured with a vernier caliper for the thickness, and the number and size of tumors and degree of colonic ulceration and adhesion were recorded; respective tissues were cut into small pieces and fixed, and the remaining tissues were frozen and stored; and the fixed tissues were used for HE staining and immunohistochemistry.

In experiment [2] the test system is IL-6, IL-10, IL-1β. The experiment is described as follows: Determination of cytokines in intestinal tumor tissues by Elisa. In kind it is in vivo, Balb/c mice. The conditions noted are these: vs model group. As for the experimental part: as §1, with “The first group was a blank control group (Normal), in which a total of 12 animals were given access to drinking water by gavage; the second group was a model group (AOM/DSS), in which a total of 22 animals were given access to drinking water by gavage; the third group was a positive drug control group (5-ASA+AOM/DSS), in which a total of 22 animals were given access to 100 mg/kg of mesalazine (5-ASA) by gavage; and the fourth and fifth groups were monotropein-intervening groups (Mo+AOM/DSS), which were a high dose of 8 mg/kg and a low dose of 2 mg/kg, respectively, with 17 animals in each group. Dosing was conducted daily until dissection.” left out
The intestinal tumor tissues frozen and stored at −80° C. were taken and homogenized, and the homogenate was determined with a BCA kit for the total protein concentration thereof. The homogenate was diluted by 20 times and then determined by Elisa method for cytokines: IL-6, IL-10, and IL-1β. […]

Experiment [3] has as its system AOM/DSS colon cancer model. Description: AOM/DSS colon cancer model, Experiment 2 (colon length, thickness, tumors). To be noted: 2 mg/kg once a day. It is filed as in vivo, Balb/c mice. As for the experimental part: Experimental method: 70 Balb/c mice of 6-8 weeks were purchased from the Experimental Animal Center in Guangzhou University of Chinese Medicine, weighed about 18-22 g, and subjected to adaptive feeding for 10 days. Modeling was divided into three stages. In the first stage, except for the normal group of animals being given saline injection, each of the other animals were intraperitoneally injected with a carcinogen AOM (10 mg/kg), and given free access to 2% DSS water from the next day for 7 days, and then given access to replaced regular drinking water for 14 days. In the second stage, the animals were given free access to 2% DSS water for 10 days, and then given access to replaced regular drinking water for 14 days. In the third stage, the animals were given free access to 2% DSS water for 10 days, and then given access to replaced regular drinking water for 11 days. The normal group was given access to regular drinking water throughout the experiment. The diet, water drinking and body weights of the animals were recorded daily and DAI scores were made, and the animals were killed and harvested at the 10th week. In this experiment, the animals were divided into groups and administrated on the first day of a modeling period of the second stage, where a total of 7 groups were set, each group including 10 animals. The first group was a blank control group (control) that was given access to drinking water by gavage; the second group was a model group (model), in which a total of 10 animals were given access to drinking water by gavage; the third group was a vitamin D3 positive administration control group (VD3, 0.2 mg/kg); and the fourth to seventh groups were given monotropein, desacetyl asperulosidic acid, asperuloside, and asperulosidic acid (groups labeled as: Mo, As, Aa, Da), respectively at a given dose of 2 mg/kg. Dosing was conducted once a day until the end of the experiment. At the end of the experiment, the animals were anesthetized and harvested, and the colon tissue was taken, measured with a ruler for the length, and measured with a vernier caliper for the thickness. The effects of monotropein, desacetyl asperulosidic acid, asperuloside and asperulosidic acid on expression of the vitamin D receptor were detected.

Experiment [4] concerns transplanted tumor of MB-231 pancreatic cancer cells. Description: Transplanted tumor of MB-231 pancreatic cancer cells in nude mice. In kind it is in vivo. The conditions noted are these: 2 mg/kg in combination with 5-fluorouracil at half dose (20 mg/kg), once a day; effect comparable to 5-fluorouracil alone 40 mg/kg. The method, then:
The SMB-231 pancreatic cancer cells were thawed, and cultured in a changed medium after 24 hours. Medium preparation method: 6% serum, 1% of a bispecific antibody+a 1640 basal medium. After grown to confluent, the cells were digested and subcultured to expand the number of cells. When reached the required amount, the cells were digested by trypsin, centrifuged, and resuspended in PBS to prepare a cell suspension of 1×10^8 cells/ml. A part of the cell suspension was added with the monotropein, desacetyl asperulosidic acid, asperuloside, and asperulosidic acid respectively, and the inhibition rate (%) of tumor cell proliferation by each of these different compounds was examined.
Male adult nude mice, which had the body weights of 20-24 g, were purchased from Guangdong Medical Laboratory Animal Center. After 7 days of adaptive feeding of the animals, except for the blank group, the remaining animals were injected with 0.2 ml of a SMB-231 pancreatic cancer cell suspension in PBS at ventrodorsal and scapula sites of them, the response conditions of the animals were observed, and the body weights of the animals were determined once a week. After 2 weeks of observation, the animals were grouped into the following groups according to tumor size: a blank group; a model group; a 5-fluorouracil control group (5-Full, 40 mg/kg); monotropein+5-fluorouracil (2 mg/kg monotropein+20 mg/kg 5-fluorouracil), desacetyl asperulosidic acid+5-fluorouracil (2 mg/kg desacetyl asperulosidic acid+20 mg/kg 5-fluorouracil), asperuloside+5-fluorouracil (2 mg/kg asperuloside+20 mg/kg 5-fluorouracil), asperulosidic acid+5-fluorouracil (2 mg/kg asperulosidic acid+20 mg/kg 5-fluorouracil), these groups being labeled as: Mo, As, Aa, Da. Each group included 8 animals; and administration was conducted once a day.
The status, death conditions, and eating and drinking conditions of the animals were observed daily. The body weights of the animals were determined once a week and the tumor size of the animals was determined every 4 days. The tumor volume of the animals was determined by using a vernier caliper. After 1 month of administration, the animals were sacrificed after blood was sampled from the orbit thereof, and the tumor was separated and weighed.

Consider `O=C(O)C1=CO[C@@H](O[C@@H]2O[C@H](CO)[C@@H](O)[C@H](O)[C@H]2O)[C@H]2[C@@H]1C=C[C@]2(O)CO` [monotropein], for which the “spleen enlargement caused by AOM/DSS modeling (organ coefficient)” value in experiment [1] (monotropein high (8 mg/kg) and low (2 mg/kg) doses, 5-ASA 100 mg/kg) was “significantly reduce the spleen enlargement”. For the same compound, the “anal prolapse occurrence at the third stage of modeling” value in experiment [1] (per group, monotropein 8 mg/kg and 2 mg/kg groups (17 animals each), 5-ASA 100 mg/kg (22 animals), gavage daily, model group 8-12) was 2-6 animals. Also, the “level of IL-10 in tumor tissues” value was “no significant differences” in experiment [2] (high-dose monotropein (8 mg/kg) and positive drug 5-ASA (100 mg/kg)); “extremely significantly up-regulated” in experiment [2] (low-dose monotropein (2 mg/kg)). Besides, the “incidence and development of colorectal cancers” value in experiment [3] was “inhibiting the incidence and development of colorectal cancers”. Moreover, in experiment [4], the “tumor proliferation in SMB-231 tumor-bearing mice” value is reported as “significantly inhibit tumor proliferation”.
